≈ marks a conversion by molar mass, not a printed value.
Experiments:
[1] = Silymarin solubility in water, CAPTISOL® solution and γ-cyclodextrin solution (Example 2, HPLC); type: physicochemical; conditions: for solubility: water, thermodynamic from solid, Solubility (mg/ml) of components of silymarin
Experimental: The solutions were centrifuged for 10 min at 13K rpm. An aliquot of the supernatant was diluted 1:5 for Water, 1:25 for γ-Cyclodextrin and 1:100 for both 0.20 M CAPTISOL® and 0.20M HP-B-Cyclodextrin using MeOH as the diluent. The standard reference was prepared by dissolving silymarin in 10 mg/mL of DMSO and then diluted to 0.50 mg/mL using MeOH.
The change of the saturated solubility of the various components of silymarin in each of the four types of samples can be seen in FIG. 4.
The data shown in Table 6 is plotted in FIGS. 5 and 6. The change of the solubility of the various components of silymarin in each of the three samples can be seen in FIG. 5. The total mutual saturated solubility of all flavonolignan components can be seen in FIG. 6. […] The various components of silymarin also have increased solubility in the CAPTISOL® (0.2M) sample.

[2] = Log D of silymarin components (octanol/buffer, HPLC); type: physicochemical; conditions: pH 7.4
Experimental: (§1) Silymarin components including taxifolin, silydianin, silychristin, silybin A, silybin B, isosilybin A, and isosilybin B were tested for their solubility in water and also for their Log D value. The silymarin extract was obtained from Indena® (Indena Code: 9065110). The HPLC system consisted of Waters system equipped with performance PLUS inline degasser along dual λ absorbance detector set at 288 nm. The chromatographic separation of silymarin constituents was achieved on a Symmetry Shield RP18 column (150×4.6 mm, 5 μm); which was maintained at ambient room temperature conditions. The binary mobile phase system consisted of reservoir A (methanol: 10 mM ammonium acetate pH 5 [65:35 v/v]) and reservoir B (10 mM ammonium acetate, pH 5) were run as per gradient program (0-1.9 min: 25% A and 75% B; 2.0-14.9 min: 80% A and 20% B and 15-37.9 min: 80% A and 20% B and 38-40 min: 25% A and 75% B). The flow rate was 1 mL/min throughout the analytical run.
To determine the Log D of silymarin components, the silymarin extract (2 mg) was dissolved in 100% DMSO and then used for the experiment. Different buffers between pH ranges of 1.0 to 12 were prepared by using universal buffer stock containing 25 mM hydrochloric acid, 25 mM citric acid, 25 mM phosphoric acid, 30 mM boric acid and 20 mM sodium chloride. About 45 mL of universal buffer was titrated with Sodium hydroxide (5M) to obtain desired pH. A 10 μL of silymarin stock solution was spiked into Eppendorf tube containing 500 μL each of a buffer and presaturated octanol. This mixture was vortexed for 5 minutes and kept for shaking at room temperature. After 16 h, the mixture was centrifuged at 10,000 RPM for 30 minutes. After centrifugation buffer and octanol phases were separated, both phases were diluted with acetonitrile (1:1) and subject to HPLC analysis for quantitation of individual components of silymarin. The Log D values of each compound at a pH was determined by Log D (pH)=Log [Organic (peak area)/Aqueous (peak area)].

[3] = Pharmacokinetic study in rat; type: in vivo; conditions: in vivo
Experimental: The Silymarin-CAPTISOL® complex was administered to rat to test its pharmacokinetic properties.
On arrival rats were housed individually in cages at animal care facility in a temperature and humidity controlled room with a 12 h:12 h (light:dark) cycles. The rats were provided with free access to food and water for one week before using for experimental purpose. The 12 rats were equally divided into three groups—Group I: silymarin-CAPTISOL® complex with a CAPTISOL® concentration of 100 mM for oral administration; Group II: silymarin suspension (Control); and Group III: silymarin complex with a CAPTISOL® concentration of 100 mM for intravenous administration. The animals were fasted overnight with free access to water. On the day of experiment, the rat was removed from animal care facility and brought to the procedure lab. The animal was weighed and appropriate dosing volume was determined. For oral administration, rat's head was held in place by gently extending the head back and supporting the lower body. The gavage tube was placed in the mouth and advanced along the lower palate till the esophagus, and the silymarin was administered through the tube. For intravenous administration, the silymarin-CAPTISOL® complex was administered by slow bolus intravenous injection into the tail vein. Approximately 200 μL blood was drawn into heparin coated tubes at pre dose, 0.15, 0.5, 1, 2, 4, 8, 10 and 24 h for oral group II and for intravenous group III. The sampling time points were predose, 0.12, 0.25, 0.5, 1, 2, 4, 8 and 24 h through the jugular vein catheter. Plasma was harvested by centrifuging the blood at 4000 RPM for 5 min and stored frozen at −80±10° C. until analysis.
Stored plasma was thawed just before performing the silymarin components analysis. 200 μL of acetonitrile containing 0.1% of ammonia was added to 50 μL of plasma, and this mixture was vortexed for 5 min and centrifuged at 4° C. for 5 min at 10,000 RPM. After centrifugation, the supernatant was separated and injected into HPLC for analysis of silymarin constituents taxifolin, silydianin, silychristin, silybin A, silybin B, isosilybin A and isosilybin B.
The plasma concentration-time curves of silybin A, silybin B, isosilybin A, and isosilybin B in the Silymarin-CAPTISOL® sample of Group I and the control sample (silymarin suspension) are respectively shown in FIGS. 20A to 20D.

[4] = Solubility of silymarin components in water (Example 10, HPLC); type: physicochemical
Experimental: as §1

[5] = Silymarin saturated solubility with CAPTISOL® (Example 1, HPLC); conditions: for solubility: 25 °C, thermodynamic from solid, Solubility (mg/ml) of flavonolignan components of silymarin, saturated with excess silymarin
Experimental: CAPTISOL® was dissolved in water to form four solutions with a CAPTISOL® concentration of 0.05 mol/L, 0.1 mol/L, 0.2 mol/L, and 0.3 mol/L respectively. 12 mg of silymarin powder (Sigma Aldrich) was added to 1 mL of each of the four CAPTISOL® solutions on Day 1, another 12 mg Silymarin powder was added on Day 3, and 19-22 mg Silymarin powder was added on Day 7 to ensure that silymarin reached its maximum solubility in each solution. The solutions were stirred in a water bath at 25° C. The solutions were then centrifuged prior to sampling. The supernatant was diluted in MeOH in preparation for HPLC assay.
A reference standard was prepared by mixing silymarin with methanol to provide a methanol solution with a silymarin concentration of 0.1 mg/ml.
HPLC was used to measure the relative concentrations of the different components of silymarin in each sample solution following the method described in Kuki et al., (2012) Chromatogram 75:175-180. The relative concentration of each component of silymarin was measured by comparing the normalized peak area units with that of the standard reference measured by the UV data at 288 nm and assuming equivalent extinction coefficients for all components.
The relative molar amounts of the ten flavonolignan components of silymarin were calculated by dividing the normalized peak area of each component in a sample by the total normalized peak area of the sample.
The concentration of each flavonolignan component of silymarin was calculated from the peak areas in Tables 1a and 1b and the total concentration of silymarin (0.1 mg/ml) in the reference sample, assuming constant extinction coefficients for each component.

[6] = CAPTISOL® (0.2M) in water, saturated
[7] = MeOH standard (0.5 mg/ml), reference
[8] = γ-cyclodextrin (0.15M) (Cavamax) in water, saturated
[9] = γ-cyclodextrin (0.15M), saturated
[10] = 0.05 M CAPTISOL in water, aqueous with cosolvent or surfactant or cyclodextrin, CAPTISOL® (0.05M) in water
[11] = 0.1 M CAPTISOL in water, aqueous with cosolvent or surfactant or cyclodextrin, CAPTISOL® (0.1M) in water
[12] = 0.2 M CAPTISOL in water, aqueous with cosolvent or surfactant or cyclodextrin, CAPTISOL® (0.2M) in water
[13] = 0.3 M CAPTISOL in water, aqueous with cosolvent or surfactant or cyclodextrin, CAPTISOL® (0.3M) in water
[14] = CAPTISOL® (0.05M), saturated solubility
[15] = CAPTISOL® (0.1M), saturated solubility
[16] = CAPTISOL® (0.2M), saturated solubility
[17] = CAPTISOL® (0.3M), saturated solubility
[18] = H2O, saturated solubility, share of total normalized peak area
[19] = MeOH standard (0.1 mg/ml), reference, share of total normalized peak area

## COc1cc([C@H]2Oc3cc([C@H]4Oc5cc(O)cc(O)c5C(=O)[C@H]4O)ccc3O[C@@H]2CO)ccc1O (relative stereo) [2,3-cis-silybin A]
[1]; [6]
  Solubility (mg/ml) of components of silymarin: 2.21 mg/mL
[1]; CAPTISOL® (0.2M), saturated
  Percentages of components of silymarin flavonolignan in the sample: 3.47%
[1]; H2O, saturated
  Percentages of components of silymarin flavonolignan in the sample: 1.88%
  Solubility (mg/ml) of components of silymarin: 0.01 mg/mL
[1]; MeOH standard (0.5 mg/ml silymarin, dissolved reference, not saturated)
  Solubility (mg/ml) of components of silymarin: 0.01 mg/mL
[1]; [7]
  Percentages of components of silymarin flavonolignan in the sample: 1.54%
[1]; [8]
  Solubility (mg/ml) of components of silymarin: 0.12 mg/mL
[1]; [9]
  Percentages of components of silymarin flavonolignan in the sample: 1.56%

## COc1cc([C@@H]2Oc3cc([C@H]4Oc5cc(O)cc(O)c5C(=O)[C@H]4O)ccc3O[C@H]2CO)ccc1O (relative stereo) [2,3-cis-silybin B]
[1]; [6]
  Solubility (mg/ml) of components of silymarin: 1.20 mg/mL
[1]; CAPTISOL® (0.2M), saturated
  Percentages of components of silymarin flavonolignan in the sample: 1.89%
[1]; H2O, saturated
  Percentages of components of silymarin flavonolignan in the sample: 0.75%
  Solubility (mg/ml) of components of silymarin: 0.01 mg/mL
[1]; [7]
  Percentages of components of silymarin flavonolignan in the sample: 0.99%
[1]; [8]
  Solubility (mg/ml) of components of silymarin: 0.06 mg/mL
[1]; [9]
  Percentages of components of silymarin flavonolignan in the sample: 0.74%

## COc1cc([C@@H]2Oc3ccc([C@H]4Oc5cc(O)cc(O)c5C(=O)[C@@H]4O)cc3O[C@H]2CO)ccc1O [Isosilybin B]
[2]
  Log D (7.4 pH): 2.53
[3]; iv
  AUC(0-2 h): 1417 ng·h/mL
  Cmax: 1308 ng/mL
  Tmax: 7.2 min
[3]; po
  % Fabs of silymarin-CAPTISOL® complex compared with silymarin alone: higher % Fabs
  AUC of Silymarin-CAPTISOL® complex compared with the control sample: higher AUC
  AUC(0-2 h): 433 ng·h/mL
  Cmax of Silymarin-CAPTISOL® complex compared with the control sample: higher Cmax
  Tmax: 30 min
[4]
  Solubility in water: 6.36 µg/mL (≈ 0.0132 mM)

## COc1cc([C@H]2Oc3cc([C@H]4Oc5cc(O)cc(O)c5C(=O)[C@@H]4O)ccc3O[C@@H]2CO)ccc1O [Silybin A]
[5]; [10]
  solubility: 2230 µg/mL (≈ 4.62 mM)
[5]; [11]
  solubility: 3800 µg/mL (≈ 7.88 mM)
[5]; [12]
  solubility: 6370 µg/mL (≈ 13.2 mM)
[5]; [13]
  solubility: 7330 µg/mL (≈ 15.2 mM)
[5]; [14]
  Percentages of flavonolignan components of silymarin in the sample: 9.55%
[5]; [15]
  Percentages of flavonolignan components of silymarin in the sample: 9.86%
[5]; [16]
  Percentages of flavonolignan components of silymarin in the sample: 9.64%
[5]; [17]
  Percentages of flavonolignan components of silymarin in the sample: 10.22%
[5]; [18]
  Percentages of flavonolignan components of silymarin in the sample: 3.15%
[5]; H2O, saturated solubility, share of total normalized peak area, listed as silybin A
  Percentages of flavonolignan components of silymarin in the sample: about 3.15%
[5]; [19]
  Percentages of flavonolignan components of silymarin in the sample: 25.35%
[5]; water, H2O
  solubility: 20 µg/mL (≈ 0.0415 mM)
[2]
  logD at 16 h: 2.26
[3]; iv, AUC(0-2 h) (ng · h/mL)
  AUC(0-t): 3440 ng·h/mL
[3]; iv, Cmax (ng/mL)
  Cmax: 7910 ng/mL
[3]; iv, Tmax (h)
  Tmax: 7.2 min
[3]; po
  % Fabs of silymarin-CAPTISOL® complex compared with silymarin alone: higher % Fabs
  AUC of Silymarin-CAPTISOL® complex compared with the control sample: higher AUC
  AUC(0-2 h): 271 ng·h/mL
  Cmax of Silymarin-CAPTISOL® complex compared with the control sample: higher Cmax
[3]; po, Tmax (h)
  Tmax: 30 min
[1]
  solubility: 30 µg/mL (≈ 0.0622 mM)
[4]; water
  solubility: 7.71 µg/mL (≈ 0.016 mM)

## COc1cc([C@@H]2Oc3c(O)cc([C@H]4Oc5cc(O)cc(O)c5C(=O)[C@@H]4O)cc3[C@H]2CO)ccc1O [Silychristin A]
[5]; [10]
  solubility: 9570 µg/mL (≈ 19.8 mM)
[5]; [11]
  solubility: 15300 µg/mL (≈ 31.7 mM)
[5]; [12]
  solubility: 25500 µg/mL (≈ 52.8 mM)
[5]; [13]
  solubility: 26900 µg/mL (≈ 55.8 mM)
[5]; [14]
  Percentages of flavonolignan components of silymarin in the sample: 41.07%
[5]; [15]
  Percentages of flavonolignan components of silymarin in the sample: 39.70%
[5]; [16]
  Percentages of flavonolignan components of silymarin in the sample: 38.52%
[5]; [17]
  Percentages of flavonolignan components of silymarin in the sample: 37.52%
[5]; [19]
  Percentages of flavonolignan components of silymarin in the sample: 22.28%
[5]; water, H2O
  solubility: 460 µg/mL (≈ 0.953 mM)
[1]
  solubility: 440 µg/mL (≈ 0.912 mM)

## COc1cc([C@H]2Oc3c(O)cc([C@H]4Oc5cc(O)cc(O)c5C(=O)[C@@H]4O)cc3[C@@H]2CO)ccc1O [Silychristin B]
[5]; [10]
  solubility: 930 µg/mL (≈ 1.93 mM)
[5]; [11]
  solubility: 1150 µg/mL (≈ 2.38 mM)
[5]; [12]
  solubility: 2320 µg/mL (≈ 4.81 mM)
[5]; [13]
  solubility: 2500 µg/mL (≈ 5.18 mM)
[5]; [14]
  Percentages of flavonolignan components of silymarin in the sample: 3.98%
[5]; [15]
  Percentages of flavonolignan components of silymarin in the sample: 2.99%
[5]; [16]
  Percentages of flavonolignan components of silymarin in the sample: 3.51%
[5]; [17]
  Percentages of flavonolignan components of silymarin in the sample: 3.48%
[5]; [18]
  Percentages of flavonolignan components of silymarin in the sample: 5.21%
[5]; [19]
  Percentages of flavonolignan components of silymarin in the sample: 1.50%
[5]; water, H2O
  solubility: 40 µg/mL (≈ 0.0829 mM)
[1]
  solubility: 60 µg/mL (≈ 0.124 mM)

## COc1cc([C@@H]2Oc3c(O)cc([C@H]4Oc5cc(O)cc(O)c5C(=O)[C@@H]4O)cc3[C@H]2CO)ccc1O [Silychristin]
[2]
  Log D (7.4 pH): 0.53
[4]
  Solubility in water: 170 µg/mL (≈ 0.352 mM)

From patent US10702568B2, “Compositions containing silymarin and sulfoalkyl ether cyclodextrin and methods of using the same” (UNIVERSITY OF KANSAS, priority 2015, dated 2020)
